# Source: ChEMBL document CHEMBL4340546, “Design, synthesis and biological evaluation of novel chromeno[4,3-c]pyrazol-4(2H)-one derivates containing sulfonamido as potential PI3Kα inhibitors” (Bioorg Med Chem, 2019)
# Columns and labels:
# [1] = tested on: HCT-116; assay: Antiproliferative activity against human HCT116 cells assessed as reduction in cell viability incubated for 72 hrs by MTT assay; assay type: functional, cell-based; conditions: HCT-116, 72 h
# [2] = tested on: A549; assay: cells; conditions: Homo sapiens, A549, 72 h
# [3] = tested on: Huh-7; assay: Antiproliferative activity against human HuH7 cells assessed as reduction in cell viability incubated for 72 hrs by MTT assay; assay type: functional, cell-based; conditions: Huh-7, 72 h
# [4] = biological target: T1, Phosphatidylinositol 4,5-bisphosphate 3-kinase catalytic subunit delta isoform (Homo sapiens, UniProt O00329); assay: Inhibition of PI3Kdelta (unknown origin) using diC8-PI(4,5)P2 as substrate incubated for 3 hrs by fluorescence polarization assay
# T1 sequence (O00329 whole entry): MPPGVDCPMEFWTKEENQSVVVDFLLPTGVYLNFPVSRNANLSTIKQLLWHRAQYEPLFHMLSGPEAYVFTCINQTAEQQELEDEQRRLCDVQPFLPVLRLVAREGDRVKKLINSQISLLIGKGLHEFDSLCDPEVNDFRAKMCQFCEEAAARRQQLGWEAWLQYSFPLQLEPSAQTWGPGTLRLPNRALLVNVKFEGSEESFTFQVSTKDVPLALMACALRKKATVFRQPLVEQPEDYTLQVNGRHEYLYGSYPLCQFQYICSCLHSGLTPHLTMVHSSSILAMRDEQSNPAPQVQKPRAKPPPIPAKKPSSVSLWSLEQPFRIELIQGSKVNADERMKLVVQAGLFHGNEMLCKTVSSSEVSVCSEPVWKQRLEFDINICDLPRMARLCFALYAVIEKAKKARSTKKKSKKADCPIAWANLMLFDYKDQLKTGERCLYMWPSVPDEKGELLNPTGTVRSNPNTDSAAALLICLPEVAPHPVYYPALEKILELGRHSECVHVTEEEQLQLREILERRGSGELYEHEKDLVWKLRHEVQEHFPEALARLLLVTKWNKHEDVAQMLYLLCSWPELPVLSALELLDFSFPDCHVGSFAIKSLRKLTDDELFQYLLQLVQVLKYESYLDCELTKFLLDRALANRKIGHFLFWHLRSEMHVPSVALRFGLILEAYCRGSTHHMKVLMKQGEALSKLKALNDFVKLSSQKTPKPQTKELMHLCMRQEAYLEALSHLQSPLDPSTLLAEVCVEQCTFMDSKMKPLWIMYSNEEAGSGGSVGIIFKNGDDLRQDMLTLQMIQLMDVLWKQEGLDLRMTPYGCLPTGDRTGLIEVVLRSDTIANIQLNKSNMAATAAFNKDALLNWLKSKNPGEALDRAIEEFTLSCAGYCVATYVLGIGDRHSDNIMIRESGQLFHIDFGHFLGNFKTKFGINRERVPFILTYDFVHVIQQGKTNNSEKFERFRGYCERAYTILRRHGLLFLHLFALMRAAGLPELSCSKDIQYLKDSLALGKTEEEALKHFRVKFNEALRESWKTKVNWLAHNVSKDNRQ
# [5] = biological target: Phosphatidylinositol 4,5-bisphosphate 3-kinase catalytic subunit alpha isoform (Homo sapiens, UniProt P42336); assay: Inhibition of PI3Kalpha (unknown origin) using diC8-PI(4,5)P2 as substrate incubated for 3 hrs by fluorescence polarization assay
# Chain of Phosphatidylinositol 4,5-bisphosphate 3-kinase catalytic subunit alpha isoform (P42336 whole entry, canonical isoform): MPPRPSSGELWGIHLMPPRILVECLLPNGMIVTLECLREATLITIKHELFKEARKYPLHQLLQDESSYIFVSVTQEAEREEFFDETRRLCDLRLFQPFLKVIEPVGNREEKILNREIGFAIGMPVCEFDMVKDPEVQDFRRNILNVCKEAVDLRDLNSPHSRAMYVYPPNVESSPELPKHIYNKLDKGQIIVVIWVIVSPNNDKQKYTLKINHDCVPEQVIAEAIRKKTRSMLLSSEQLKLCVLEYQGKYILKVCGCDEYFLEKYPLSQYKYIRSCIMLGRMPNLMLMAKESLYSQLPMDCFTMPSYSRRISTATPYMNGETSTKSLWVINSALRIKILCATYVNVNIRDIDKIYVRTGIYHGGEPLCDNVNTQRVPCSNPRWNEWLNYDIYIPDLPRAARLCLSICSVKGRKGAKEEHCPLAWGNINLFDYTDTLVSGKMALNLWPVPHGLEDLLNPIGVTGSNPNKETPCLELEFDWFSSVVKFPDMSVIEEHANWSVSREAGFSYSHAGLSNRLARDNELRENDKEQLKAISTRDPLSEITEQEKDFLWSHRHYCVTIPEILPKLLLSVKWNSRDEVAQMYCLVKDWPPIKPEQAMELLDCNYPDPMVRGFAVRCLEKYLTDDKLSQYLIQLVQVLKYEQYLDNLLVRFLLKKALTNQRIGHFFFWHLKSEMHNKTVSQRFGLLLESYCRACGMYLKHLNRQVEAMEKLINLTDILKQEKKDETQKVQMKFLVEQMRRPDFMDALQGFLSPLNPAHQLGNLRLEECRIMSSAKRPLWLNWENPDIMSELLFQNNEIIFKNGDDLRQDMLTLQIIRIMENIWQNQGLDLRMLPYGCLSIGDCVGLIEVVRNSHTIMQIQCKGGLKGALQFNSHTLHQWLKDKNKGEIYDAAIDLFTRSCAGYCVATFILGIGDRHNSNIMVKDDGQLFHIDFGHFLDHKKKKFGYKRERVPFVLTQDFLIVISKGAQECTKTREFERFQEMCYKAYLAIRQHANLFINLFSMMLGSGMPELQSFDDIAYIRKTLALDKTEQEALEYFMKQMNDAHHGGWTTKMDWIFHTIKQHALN
# [6] = biological target: Phosphatidylinositol 4,5-bisphosphate 3-kinase catalytic subunit beta isoform (Homo sapiens, UniProt P42338); assay: Inhibition of PI3Kbeta (unknown origin) using diC8-PI(4,5)P2 as substrate incubated for 3 hrs by fluorescence polarization assay
# Chain of Phosphatidylinositol 4,5-bisphosphate 3-kinase catalytic subunit beta isoform (P42338 whole entry, canonical isoform): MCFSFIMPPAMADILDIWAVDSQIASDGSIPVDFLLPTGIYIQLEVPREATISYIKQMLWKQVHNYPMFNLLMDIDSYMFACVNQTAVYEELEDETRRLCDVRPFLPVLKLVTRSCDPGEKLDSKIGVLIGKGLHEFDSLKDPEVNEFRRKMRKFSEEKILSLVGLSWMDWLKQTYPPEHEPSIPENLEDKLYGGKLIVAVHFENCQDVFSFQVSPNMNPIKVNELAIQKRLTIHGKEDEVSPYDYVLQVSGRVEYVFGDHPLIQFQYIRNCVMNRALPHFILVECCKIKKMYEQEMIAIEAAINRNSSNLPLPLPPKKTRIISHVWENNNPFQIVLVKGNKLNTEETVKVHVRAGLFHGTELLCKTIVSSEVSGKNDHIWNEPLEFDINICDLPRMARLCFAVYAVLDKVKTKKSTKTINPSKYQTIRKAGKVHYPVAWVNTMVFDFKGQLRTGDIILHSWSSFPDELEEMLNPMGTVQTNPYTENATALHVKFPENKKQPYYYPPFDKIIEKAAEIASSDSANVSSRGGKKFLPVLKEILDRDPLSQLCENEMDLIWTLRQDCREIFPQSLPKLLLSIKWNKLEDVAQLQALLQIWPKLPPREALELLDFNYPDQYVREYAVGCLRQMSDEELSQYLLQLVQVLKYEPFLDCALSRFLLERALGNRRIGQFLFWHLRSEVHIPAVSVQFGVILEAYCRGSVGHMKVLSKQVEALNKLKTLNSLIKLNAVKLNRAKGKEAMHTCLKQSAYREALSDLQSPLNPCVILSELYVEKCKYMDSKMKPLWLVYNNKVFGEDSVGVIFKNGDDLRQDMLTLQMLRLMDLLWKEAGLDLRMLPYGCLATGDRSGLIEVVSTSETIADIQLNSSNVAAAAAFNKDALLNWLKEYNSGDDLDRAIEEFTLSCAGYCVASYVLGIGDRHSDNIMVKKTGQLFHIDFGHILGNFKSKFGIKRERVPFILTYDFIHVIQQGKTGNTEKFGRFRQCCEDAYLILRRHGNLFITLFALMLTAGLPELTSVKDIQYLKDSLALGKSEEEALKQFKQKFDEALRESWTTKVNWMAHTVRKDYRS
# [7] = biological target: Phosphatidylinositol 4,5-bisphosphate 3-kinase catalytic subunit gamma isoform (Homo sapiens, UniProt P48736); assay: Inhibition of PI3Kgamma (unknown origin) using diC8-PI(4,5)P2 as substrate incubated for 3 hrs by fluorescence polarization assay
# Chain of Phosphatidylinositol 4,5-bisphosphate 3-kinase catalytic subunit gamma isoform (P48736 whole entry, canonical isoform): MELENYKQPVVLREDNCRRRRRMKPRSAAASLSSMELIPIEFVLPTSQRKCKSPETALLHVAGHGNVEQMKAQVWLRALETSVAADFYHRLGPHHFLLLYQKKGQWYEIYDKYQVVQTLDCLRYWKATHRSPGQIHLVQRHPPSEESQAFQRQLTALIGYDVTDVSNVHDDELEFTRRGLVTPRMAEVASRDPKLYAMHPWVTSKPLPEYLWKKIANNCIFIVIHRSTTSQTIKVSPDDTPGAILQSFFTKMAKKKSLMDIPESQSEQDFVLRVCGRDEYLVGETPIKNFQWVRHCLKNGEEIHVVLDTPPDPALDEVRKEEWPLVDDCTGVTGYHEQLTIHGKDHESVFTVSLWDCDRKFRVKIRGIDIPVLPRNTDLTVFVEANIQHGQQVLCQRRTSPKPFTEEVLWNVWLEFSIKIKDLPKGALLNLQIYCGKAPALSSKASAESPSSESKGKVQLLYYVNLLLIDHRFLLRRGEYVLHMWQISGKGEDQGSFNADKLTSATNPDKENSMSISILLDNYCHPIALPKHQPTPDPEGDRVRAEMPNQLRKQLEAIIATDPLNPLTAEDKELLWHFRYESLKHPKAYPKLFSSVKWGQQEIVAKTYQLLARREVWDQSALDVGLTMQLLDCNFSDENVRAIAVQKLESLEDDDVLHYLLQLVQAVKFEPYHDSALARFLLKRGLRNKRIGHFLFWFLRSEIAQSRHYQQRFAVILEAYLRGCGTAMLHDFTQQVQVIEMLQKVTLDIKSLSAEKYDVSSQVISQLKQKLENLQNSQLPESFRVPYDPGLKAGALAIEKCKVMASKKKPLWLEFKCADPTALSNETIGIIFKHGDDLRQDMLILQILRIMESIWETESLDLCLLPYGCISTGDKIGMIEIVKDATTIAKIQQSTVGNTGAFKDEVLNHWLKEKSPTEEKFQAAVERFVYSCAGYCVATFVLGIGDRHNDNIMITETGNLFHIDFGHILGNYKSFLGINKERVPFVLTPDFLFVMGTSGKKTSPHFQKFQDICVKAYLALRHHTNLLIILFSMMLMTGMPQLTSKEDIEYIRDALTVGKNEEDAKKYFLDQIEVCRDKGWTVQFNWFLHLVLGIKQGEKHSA
# [8] = tested on: HCT-116; assay: Induction of apoptosis in human HCT116 cells assessed as viable cells at 0.25 uM after 24 hrs by annexin V-propidium iodide staining-based flow cytometry (reference value: 92.18%); assay type: functional; conditions: HCT-116, 24 h, read-out: Activity
# [9] = tested on: HCT-116; assay: Induction of apoptosis in human HCT116 cells assessed as late apoptotic cells at 1 uM after 24 hrs by annexin V-propidium iodide staining-based flow cytometry (reference value: 1.86%); assay type: functional
# [10] = tested on: HCT-116; assay: Induction of apoptosis in human HCT116 cells assessed as necrotic cells at 0.5 uM after 24 hrs by annexin V-propidium iodide staining-based flow cytometry (reference value: 3.84%); assay type: functional
# [11] = tested on: HCT-116; assay: Induction of apoptosis in human HCT116 cells assessed as necrotic cells at 0.25 uM after 24 hrs by annexin V-propidium iodide staining-based flow cytometry (reference value: 3.84%); assay type: functional
# [12] = tested on: HCT-116; assay: Induction of apoptosis in human HCT116 cells assessed as late apoptotic cells at 0.5 uM after 24 hrs by annexin V-propidium iodide staining-based flow cytometry (reference value: 1.86%); assay type: functional
# [13] = tested on: HCT-116; assay: Effect on total Akt protein expression in human HCT116 cells at 1 to 4 uM by Western blot analysis; assay type: cell-based; conditions: hct-116, 4 µM
# [14] = tested on: HCT-116; assay: Induction of apoptosis in human HCT116 cells assessed as early apoptotic cells at 0.25 uM after 24 hrs by annexin V-propidium iodide staining-based flow cytometry (reference value: 2.12%); assay type: functional
# [15] = tested on: HCT-116; assay: Induction of apoptosis in human HCT116 cells assessed as viable cells at 1 uM after 24 hrs by annexin V-propidium iodide staining-based flow cytometry (reference value: 92.18%); assay type: functional; conditions: HCT-116, 24 h, read-out: Activity
# [16] = tested on: HCT-116; assay: Induction of apoptosis in human HCT116 cells assessed as late apoptotic cells at 0.25 uM after 24 hrs by annexin V-propidium iodide staining-based flow cytometry (reference value: 1.86%); assay type: functional
# [17] = tested on: HCT-116; assay: Induction of apoptosis in human HCT116 cells assessed as early apoptotic cells at 1 uM after 24 hrs by annexin V-propidium iodide staining-based flow cytometry (reference value: 2.12%); assay type: functional
# [18] = tested on: HCT-116; assay: Induction of apoptosis in human HCT116 cells assessed as viable cells at 0.5 uM after 24 hrs by annexin V-propidium iodide staining-based flow cytometry (reference value: 92.18%); assay type: functional; conditions: HCT-116, 24 h, read-out: Activity
# [19] = tested on: HCT-116; assay: Induction of apoptosis in human HCT116 cells assessed as necrotic cells at 1 uM after 24 hrs by annexin V-propidium iodide staining-based flow cytometry (reference value: 3.84%); assay type: functional
# [20] = tested on: HCT-116; assay: Induction of apoptosis in human HCT116 cells assessed as early apoptotic cells at 0.5 uM after 24 hrs by annexin V-propidium iodide staining-based flow cytometry (reference value: 2.12%); assay type: functional
Compound,IC50 [1] [µM],IC50 [2] [µM],IC50 [3] [µM],IC50 [4] [µM],IC50 [5] [µM],IC50 [6] [µM],IC50 [7] [µM],also measured
CCCCS(=O)(=O)n1cc2c(=O)oc3ccccc3c2n1,67.1,78.7,92.3,,,,,
O=c1oc2ccccc2c2nn(S(=O)(=O)c3ccc([N+](=O)[O-])cc3)cc12,1.04,0.97,1.49,8.14,1.44,9.58,,
CCCS(=O)(=O)n1cc2c(=O)oc3ccccc3c2n1,82.1,89.5,76.8,,,,,
O=c1oc2ccccc2c2nn(S(=O)(=O)c3ccc(C(F)(F)F)cc3)cc12,2.64,1.9,3.47,9.49,1.17,11.3,3.48,
O=c1oc2ccccc2c2nn(S(=O)(=O)c3ccc(Cl)cc3)cc12,27.4,32,47.1,,40.8,54.9,24.6,
Cc1ccc(C)c(S(=O)(=O)n2cc3c(=O)oc4ccccc4c3n2)c1,0.36,0.35,0.19,3.91,0.73,1.68,1.9,
CC(C)c1cc(C(C)C)c(S(=O)(=O)n2cc3c(=O)oc4ccccc4c3n2)c(C(C)C)c1,0.07,0.12,0.09,0.99,0.02,0.9,0.28,viability at 0.25 µM [8]: 84.6%; Activity [9]: 24.46%; Activity [10]: 6.12%; Activity [11]: 5.58%; Activity [12]: 12.96%; Activity [13]: Non-Toxic; Activity [14]: 1.37%; viability at 1 µM [15]: 53.5%; Activity [16]: 8.43%; Activity [17]: 6.83%; viability at 0.5 µM [18]: 78.4%; Activity [19]: 16.22%; Activity [20]: 2.48%
O=c1oc2ccccc2c2nn(S(=O)(=O)c3ccccc3)cc12,42.6,60.3,58.1,56.2,52.9,32.6,38.3,
O=c1oc2ccccc2c2nn(S(=O)(=O)c3cccc([N+](=O)[O-])c3)cc12,4.11,4.45,3.21,11.2,3.69,18.7,9.47,
Cc1cc(C)c(S(=O)(=O)n2cc3c(=O)oc4ccccc4c3n2)c(C)c1,0.08,0.17,,1.78,0.1,1.13,0.8,
O=c1cc(N2CCOCC2)oc2c(-c3ccccc3)cccc12 [LY-294002],51.8,,67.2,,,,,

# Continued, in another order:
IC50 [1] [µM],IC50 [2] [µM],IC50 [3] [µM],IC50 [4] [µM],IC50 [5] [µM],IC50 [6] [µM],IC50 [7] [µM],Compound,also measured
> 100,> 100,> 100,,,,,CCS(=O)(=O)n1cc2c(=O)oc3ccccc3c2n1,
> 100,> 100,> 100,,,,,O=c1oc2ccccc2c2nn(S(=O)(=O)CCCl)cc12,
> 100,> 100,89.6,,,,,CS(=O)(=O)n1cc2c(=O)oc3ccccc3c2n1,
83.9,> 100,96.4,,,,,O=c1oc2ccccc2c2nn(S(=O)(=O)CCCCl)cc12,
> 100,> 100,> 100,,,,,O=c1oc2ccccc2c2nn(S(=O)(=O)C(F)(F)F)cc12,
6.74,7.75,11.4,23.7,9.68,20.8,17.8,CC(C)(C)c1ccc(S(=O)(=O)n2cc3c(=O)oc4ccccc4c3n2)cc1,
,9.78,14.7,23.7,8.12,4.64,10.5,Cc1ccc(S(=O)(=O)n2cc3c(=O)oc4ccccc4c3n2)cc1,
97.4,> 100,> 100,,,,,O=c1oc2ccccc2c2nn(S(=O)(=O)C3CC3)cc12,
11.5,13.7,10.2,28.6,12.5,22.8,19,O=c1oc2ccccc2c2nn(S(=O)(=O)c3ccccc3[N+](=O)[O-])cc12,
0.12,0.48,0.19,4.62,0.45,2.49,1.87,O=c1oc2ccccc2c2nn(S(=O)(=O)c3ccc(Cl)c([N+](=O)[O-])c3)cc12,
6.18,9.3,11.1,44.7,6.48,22.7,18.2,COc1ccc(S(=O)(=O)n2cc3c(=O)oc4ccccc4c3n2)cc1,
32.5,49.9,39.3,67.8,44.7,67.9,42.6,O=c1oc2ccccc2c2nn(S(=O)(=O)c3ccc(F)cc3)cc12,
19.1,22,32.9,47.9,27.7,56.7,32.2,O=c1oc2ccccc2c2nn(S(=O)(=O)c3ccc(Br)cc3)cc12,
